“Also recorded” adds a separate entry of the source.
Assays:
[1] = target: T1, Aβ amyloid (Amyloid β peptide in Alzheimer's disease) (Homo sapiens, UniProt P05067); assay: Biotinylated peptide overlay on amyloid-containing tissue sections; type: binding
T1 construct: Amyloid β peptide in Alzheimer's; from tissue; host or cells: formalin-fixed tissue sections from Alzheimer's disease patients
Experimental: (§1) To catalog the range of amyloids that p31 and other peptides may bind, biotinylated peptides using the biotinyl-maleimide adduct which interacts specifically with the solitary Cys residue in the “leader” sequence were prepared. The peptides were overlaid onto formalin-fixed 6 μm-thick amyloid-containing tissue sections, incubated overnight and then the distribution visualized using standard immunohistochemical techniques.

[2] = target: T2, AGal amyloid (Galectin 7) (Homo sapiens, UniProt P47929); assay: as above; type: binding
T2 construct: from tissue; host or cells: formalin-fixed patient tissue sections
T2 sequence (P47929 whole entry): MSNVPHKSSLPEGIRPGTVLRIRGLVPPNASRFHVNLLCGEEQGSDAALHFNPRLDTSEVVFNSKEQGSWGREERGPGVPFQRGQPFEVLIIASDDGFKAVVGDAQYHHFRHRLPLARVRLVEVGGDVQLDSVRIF
Experimental: as §1

[3] = system: AA amyloid (Serum amyloid protein A); assay: as above; type: binding; conditions: AA (human and canine)
Experimental: as §1

[4] = target: T3, ATTR amyloid (Transthyretin) (Homo sapiens, UniProt P02766); assay: as above; type: binding
T3 construct: amyloid-containing tissue sections from patients with AL κ and λ amyloidosis, Alzheimer's disease, Transthyretin amyloidsis (ATTR); from tissue; host or cells: formalin-fixed patient tissue sections
Experimental: as §1

ALECT2 amyloid (Lectin2) = target: T4, ALECT2 amyloid (Lectin2) (Homo sapiens, UniProt O14960); assay: as above; type: binding
T4 construct: from tissue; host or cells: formalin-fixed patient tissue sections
T4 sequence (O14960 19-151): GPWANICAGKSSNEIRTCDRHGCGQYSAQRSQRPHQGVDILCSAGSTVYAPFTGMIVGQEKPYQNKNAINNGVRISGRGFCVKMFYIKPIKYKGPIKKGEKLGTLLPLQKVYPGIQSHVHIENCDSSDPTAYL
Experimental: as §1

[5] = system: amyloid deposits in tissues from patients with light chain (AL) amyloidosis, Alzheimer's disease and other forms of amyloidosis; assay: Biotinylated peptide overlay on formalin-fixed paraffin embedded patient tissues; type: binding, human; conditions: formalin-fixed paraffin embedded tissue sections
Experimental: The reactivity of biotinylated peptide p31 with amyloid deposits in formalin-fixed paraffin embedded tissues from patients with light chain (AL) amyloidosis, or Alzheimer's disease, and other forms of amyloidosis was examined.
as §1

AA amyloid = target: T5, AA amyloid (Mus musculus, UniProt P05367); assay: In vivo evaluation of radiolabeled peptides in TRIAD AA mouse model: SPECT imaging, biodistribution, autoradiography; conditions: for autoradiography: binding to AA amyloid in the necrotic renal papillae in vivo: mouse; for SPECT imaging of 125I-labeled fusion peptides in AA mice versus WT: mice with visceral AA amyloidosis
T5 construct: from tissue; host or cells: living TRIAD mice with systemic peripheral AA amyloidosis
T5 sequence (P05367 20-95 limits assumed): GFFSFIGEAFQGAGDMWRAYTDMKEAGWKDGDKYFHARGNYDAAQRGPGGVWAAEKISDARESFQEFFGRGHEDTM
Experimental: Based on the data obtained with protamines, in the Examples below, peptides that are positively charged are selected. They were labeled with radioiodine (I-125 and I-123) or technetium (Tc-99m) tested for in vivo binding to systemic AA amyloid deposits in the transgenic rapidly inducible amyloid disease (TRIAD) murine model by microSPECT or microPET imaging. The tissue biodistribution of each were assessed by gamma counting and the micro-distribution determined by autoradiography. Further, preliminary examinations were performed of the binding of biotinylated forms of these peptides with formalin-fixed, paraffin-embedded, amyloid-containing tissue sections from patients with AL κ and λ amyloidosis, Alzheimer's disease, Transthyretin amyloidsis (ATTR), serum amyloid protein A amyloidosis (AA), fibrinogen α amyloidosis (AFibα), calcifying epithelium odontogenic tumor amyloid (AODAM), galectin 7 amyloidosis (AGal), and Lect2 amyloidosis (ALECT2).
Two methods of radiolabeling the peptides were employed. For radioiodination, the direct oxidative iodination of tyrosyl groups on the peptides was employed. This method yields product with high specific activity (˜10-20 μCi/μg) of pure ^125I-labeled peptide. The second method involves radiolabeling the peptides with ^99mTc according to the method of Tran et al. (Bioconjugate Chem, 2007, 18, 549-558). The quality of each radiolabeled peptide was assessed by SDS-PAGE (15% poly-acrylamide) analyzed with quantitative phosphor imaging.
Each of the radiolabeled peptides were evaluated for its specific reactivity with amyloids in vivo, using the TRIAD AA mouse model, by using SPECT imaging, biodistribution measurements, and autoradiography. The reactivity of the radiolabeled peptides were assessed in transgenic rapidly inducible amyloid disease (TRIAD) mice with systemic peripheral AA amyloidosis as well as control (amyloid free) mice, by imaging the mice. The reactivity of the peptides were evaluated at 1 hour, 2 hours, 4 hours, 8 hours, 12 hours, or 24 hours post injection of the radiolabeled peptides. […] The other peptides also bound amyloids, but not as well as these.
In a dual-energy imaging experiment, peptide p31 was labeled with Tc^99m and SAP labeled with I^125 and the binding of each radiotracer was examined by using dual-energy microSPECT imaging in an individual TRIAD mouse with AA amyloidosis.
To examine the kinetics of the reactivity of peptides p48, p31, and p31-GGGY, dynamic PET imaging of I^124-labeled peptides p48, p31, p31-GGGY, and p50 (as a control) was performed in TRIAD mice with AA amyloidosis or wild type mice without amyloid. Finally, in a preliminary study, the binding of I^125-labeled SAP and Tc^99m-labeled peptide p31 was compared in the same TRIAD mouse with AA amyloidosis.

[6] = system: ALκ amyloid (κ light chains); assay: Biotinylated peptide overlay on amyloid-containing tissue sections; type: binding, human
Experimental: as §1

[7] = system: AFibα amyloid (Fibrinogen α); assay: as above; type: binding, human
Experimental: as §1

[8] = system: ALλ amyloid (λ light chains); assay: as above; type: binding, human; conditions: overnight incubation, 6 μm-thick sections
Experimental: as §1

ACEOT amyloid (ODAM) = assay: as above; type: binding, human
Experimental: as §1

ApoA2c amyloid = assay: In vivo SPECT/CT imaging, biodistribution and micro-autoradiography in ApoA2c mice; parameters: species or system mouse; conditions: for SPECT/CT uptake in amyloid-laden tissues: 2 or 4 h pi; for biodistribution, tissue-to-muscle ratios, ApoA2c versus WT tissues: mouse, in vivo
Experimental: (§2) The novel peptide, p5R+14, was radiolabeled with ^125I via an oxidation reaction with chloramine T. The labeled peptide was separated from free iodide using size exclusion chromatography on a Sephadex G25 column. For ex vivo amyloid binding assays, the ^125I-labeled p5 and p5R+14 peptides were added to 50 μL of homogenized tissue derived from wild type or amyloid laden ApoA2c mice. After a 1 h incubation, the amount of bound peptide (% of total) was assessed by gamma counting following centrifugation. For in vivo imaging, peptides p5 and p5R+14 were radiolabeled as above, and the radiopurities were determined by using SDS-PAGE and phosphor imaging.
Approximately 200 μCi was injected iv in the lateral tail vein of ApoA2c mice (n=3). SPECT/CT images were acquired using the Inveon Tri-Modality System at 2 or 4 h pi. Organs were harvested and biodistribution of radiotracers was determined and recorded as % injected dose/gram. For comparisons between the peptides, tissue to muscle ratios were used. The tissues were then fixed in formalin, paraffin embedded, sectioned and exposed to photographic emulsion for ˜3 days.

[9] = system: ApoA2c amyloid-laden tissues; assay: Ex vivo amyloid binding assay with homogenized tissue of ApoA2c mice; parameters: species or system mouse; conditions: for binding to ApoA2c amyloid-laden tissues in vitro: 125I-labeled, 1 h incubation, gamma counting
Experimental: as §2

AA amyloid deposits = target: T6, AA amyloid deposits (Mus musculus, UniProt P05367)
T6 sequence (P05367 20-95 limits assumed): T5 sequence (P05367 20-95 limits assumed)
Experimental: Following radioiodination, ^125I-labeled protamine (^125I-protamine) was administered to animals with severe systemic AA amyloidosis mice or to amyloid-free mice and allowed to circulate for 1 hour, 2 hours, 4 hours, 8 hours or 24 hours. At each time point high-resolution microSPECT/CT images were acquired and the tissue distribution of the radioactivity determined by gamma counting. Finally, 6 μm-thick tissue sections were prepared for autoradiography and histological evaluation of the micro-distribution of the radiolabeled peptides and amyloid deposits, respectively.

Substance: CGGYSKAQKAQAKQAKQAQKAQKAQAKQAKQ (Heparin-binding peptide) [p31]
- binding to amyloid in tissue sections [1]: specifically binds significantly
- binding to amyloid in tissue sections [2]: specifically binds significantly
- binding to amyloid in tissue sections [3]: specifically binds significantly
- binding to amyloid in tissue sections [4]: specifically binds significantly
- binding to amyloid in tissue sections (ALECT2 amyloid (Lectin2)): specifically binds significantly
- binding of biotinylated peptide to tissue amyloid [5]: bound tissue amyloid from these patients with great affinity; also recorded: selectively bound to the amyloids in the tissue section
- SPECT imaging of AA amyloid compared to SAP (AA amyloid; 99mTc-labeled peptide, 125I-labeled SAP, same mouse): as effective as SAP; also recorded: the same as that for SAP
- SPECT distribution in AA mouse compared to WT control (AA amyloid; 125I-labeled): totally different
- retention on AA amyloid in vivo (SPECT images and biodistribution) (AA amyloid; 24 h post-injection): remained bound to the AA amyloid in vivo
- specific amyloid binding, ranking from in vivo imaging studies (AA amyloid; TRIAD AA mouse model, 1-24 hours post injection): best specific amyloid binding reagents
- autoradiography: reactivity with murine pancreatic AA amyloid (AA amyloid; compared to SAP): greater reactivity with murine pancreatic AA amyloid as compared to SAP
- biodistribution: amount of amyloid bound compared to SAP (AA amyloid; mice): binds more amyloid in vivo
- autoradiography: binding to AA amyloid in the necrotic renal papillae in vivo (AA amyloid): binds AA amyloid in the necrotic renal papillae
- binding to amyloid in tissue sections [6]: specifically binds significantly
- binding to amyloid in tissue sections [7]: specifically binds significantly
- binding to amyloid in tissue sections [8]: specifically binds significantly
- binding to amyloid in tissue sections (ACEOT amyloid (ODAM)): specifically binds significantly

Substance: GGGYSKAQKAQAKQAKQAQKAQKAQAKQAKQ [p31-GGGY]
- uptake of radiotracer in splenic amyloid in vivo (ApoA2c amyloid; ApoA2c mice): no uptake
- SPECT/CT uptake in amyloid-laden tissues (ApoA2c amyloid; ApoA2c mice): lack of positive amyloid uptake
- micro-autoradiography of tissues (ApoA2c amyloid; ApoA2c mice, listed as 125I-p5): only slight uptake
- micro-autoradiography of tissues (ApoA2c amyloid; ApoA2c mice, listed as p5): scant amounts
- biodistribution, tissue-to-muscle ratios, ApoA2c versus WT tissues (ApoA2c amyloid): not significantly higher
- binding to ApoA2c amyloid-laden tissues in vitro [9]: able to bind

Substance: GGGYSRAQRAQARQARQAQRAQRAQARQARQAQRAQRAQARQARA [p31RGGGY + 14]
- micro-autoradiography of tissues (ApoA2c amyloid; ApoA2c mice): localized to amyloid within the tissues
- SPECT/CT uptake in amyloid-laden tissues (ApoA2c amyloid; ApoA2c mice, listed as 125I-p5R+14): uptake of ^125I-p5R+14 in amyloid-laden tissues such as the heart, liver, spleen and intestines; also recorded: cardiac uptake is not part of blood pool clearance
- SPECT/CT uptake in amyloid-laden tissues (ApoA2c amyloid; ApoA2c mice, listed as p5R+14): bound cardiac amyloid deposits as well as those in the liver, spleen and intestines
- biodistribution, tissue-to-muscle ratios, ApoA2c versus WT tissues (ApoA2c amyloid): clearly more p5R+14 binding to the diseased tissues
- binding to ApoA2c amyloid-laden tissues in vitro [9]: able to bind
- amount bound compared between p5R+14 and p5 ([9]; tissues of ApoA2c-amyloid mouse, listed as p5R+14): bound in greater amounts to all tissue samples as compared to p5; also recorded: higher binding in every tissue of interest

Substance: GGYSKAQKAQAKQAKQAQKAQKAQAKQAKQGGTFFYGGSRGKRNNFKTEEY [WAL14465]
- SPECT imaging of 125I-labeled fusion peptides in AA mice versus WT (AA amyloid): retained by the amyloid deposits in the liver spleen and kidneys

Substance: RRLSYSRRRFCGGYSKAQKAQAKQA KQAQKAQKAQAKQAKQ (RRLSYSRRRFCGGYSKAQKAQAKQAKQAQKAQKAQAKQAKQ) [Syb3-p31, fusion of p31 with cell penetrating peptide]
- SPECT imaging of 125I-labeled fusion peptides in AA mice versus WT (AA amyloid): retained by the amyloid deposits in the liver spleen and kidneys

Substance: SAP: Serum amyloid P component, the gold standard amyloid imaging agent; decameric, Mw ~250 kD [reference compound]
- autoradiography: binding to AA amyloid in the necrotic renal papillae in vivo (AA amyloid): does not

Substance: YGRKKRRQRRRCGGYSKAQKAQAKQAKQAQKAQKAQAKQAKQ [TAT-p31, fusion of p31 with cell penetrating peptide]
- SPECT imaging of 125I-labeled fusion peptides in AA mice versus WT (AA amyloid): retained by the amyloid deposits in the liver spleen and kidneys

Substance: protamine
- microSPECT distribution in AA mice (AA amyloid deposits; AA mice): sequestered by amyloid deposits in the liver, kidney, pancreas and spleen
- micro-autoradiography association with amyloid (AA amyloid deposits; AA mice, notably liver): preferentially associated with the AA amyloid
- accumulation in organs or tissues of amyloid-free mice (AA amyloid deposits; amyloid-free mice): little or no specific accumulation
- calculated tissue:muscle ratios, mice with AA versus amyloid-free mice (AA amyloid deposits; liver, kidney, pancreas, spleen, stomach, gamma counting): at least 2 fold
- fate of radiolabel in control mice (AA amyloid deposits; mouse, in vivo): rapidly dehalogenated

Source: US8808666B2, “Peptides that specifically target amyloid deposits” (University of Tennessee Research Foundation, priority 2010, dated 2014)
